Assay results reported in US20060069132A1, “Azolecarboxamide herbicides” (priority 2004, published 2006).

Columns and labels:
barnyardgrass [1] = experiment: Test B pre-/postemergence herbicide test; format: in vivo, Echinochloa crus-galli; details: for Plant response rating (0 to 100 scale), Barnyardgrass: 0 is no effect
Outline: (§1)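 Greenhouse pot assay with simultaneous preemergence (treated seed) and postemergence (2–18 cm seedlings) applications of surfactant-containing, non-phytotoxic solvent formulations. Response scored visually 13–15 days later on a 0–100 scale, 100 meaning complete control.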

Surinam grass = experiment: Test B pre-/postemergence herbicide test; format: in vivo, Urochloa decumbens; details: for Plant response rating (0 to 100 scale), Surinam Grass: 0 is no effect
Outline: as §1

cocklebur = experiment: Test B pre-/postemergence herbicide test; format: in vivo, Xanthium strumarium; details: for Plant response rating (0 to 100 scale), Cocklebur: 0 is no effect
Outline: as §1

corn = experiment: Test B pre-/postemergence herbicide test; format: in vivo, Zea mays; details: for Plant response rating (0 to 100 scale), Corn: 0 is no effect
Outline: as §1

large crabgrass = experiment: Test B pre-/postemergence herbicide test; format: in vivo, Digitaria sanguinalis; details: for Plant response rating (0 to 100 scale), Crabgrass, Large: 0 is no effect
Outline: as §1

giant foxtail = experiment: Test B pre-/postemergence herbicide test; format: in vivo, Setaria faberi; details: for Plant response rating (0 to 100 scale), Foxtail, Giant: 0 is no effect
Outline: as §1

lambsquarters = experiment: Test B pre-/postemergence herbicide test; format: in vivo, Chenopodium album; details: for Plant response rating (0 to 100 scale), Lambsquarters: 0 is no effect
Outline: as §1

morningglory = experiment: Test B pre-/postemergence herbicide test; format: in vivo, Ipomoea coccinea; details: for Plant response rating (0 to 100 scale), Morningglory: 0 is no effect
Outline: as §1

pigweed = experiment: Test B pre-/postemergence herbicide test; format: in vivo, Amaranthus retroflexus; details: for Plant response rating (0 to 100 scale), Pigweed: 0 is no effect
Outline: as §1

blackgrass = experiment: Test B postemergence herbicide test; format: in vivo, Alopecurus myosuroides
Outline: (§2)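 Greenhouse test; postemergence application to plants at 1–4 leaves (2–18 cm); paddy species at 2 leaves; evaluated visually vs controls at 13–15 days; scale 0–100 (100 = complete control).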

wheat = experiment: Test B postemergence herbicide test; format: in vivo, Triticum aestivum; design: key to Wheat plant response rating: 0 = no effect, 100 = complete control
Outline: (§3)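 Read-out: visual comparison with controls, scored 0 to 100, where 100 means complete control and 0 no effect. Formulated chemicals were applied postemergence to plants 2–18 cm tall (1- to 4-leaf), or to flooded-paddy plants at the 2-leaf stage, then held 13 to 15 days under glass.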

wild oat = experiment: Test B postemergence herbicide test; format: in vivo, Avena fatua
Outline: as §3

rice = experiment: Test B flooded paddy test; format: in vivo, Oryza sativa; details: 1000 g ai/ha, scale 0 to 100 (0 no effect, 100 complete control)
Outline: as §2

[2] = system: small flower umbrella sedge; experiment: Test B flooded paddy test; format: in vivo, Cyperus difformis; details: 1000 g ai/ha, scale 0 to 100 (0 no effect, 100 complete control)
Outline: as §2

ducksalad = experiment: Test B flooded paddy test; format: in vivo, Heteranthera limosa; details: 1000 g ai/ha, scale 0 to 100 (0 no effect, 100 complete control)
Outline: as §2

barnyardgrass [3] = experiment: Test B flooded paddy test; format: in vivo, Echinochloa crus-galli; details: 1000 g ai/ha, scale 0 to 100 (0 no effect, 100 complete control)
Outline: as §2

[4] = 125 g ai/ha, 100 is complete control, preemergence
[5] = 125 g ai/ha, visual rating, scale 0 (no effect) to 100 (complete control), postemergence
[6] = 500 g ai/ha, visual rating, 0 = no effect, 100 = complete control, preemergence
[7] = postemergence, 500 g ai/ha, scale 0 to 100, 0 is no effect, 100 is complete control
[8] = Postemergence, 500 g ai/ha, scale 0 (no effect) to 100 (complete control)
[9] = postemergence, 125 g ai/ha, scale 0 to 100

CCn1nc(C(C)(C)C)cc1C(=O)Nc1cccc(OC(F)F)c1 [Compound 332]
Plant response rating (0 to 100 scale), Barnyardgrass (barnyardgrass [1]; [4]): 10
Barnyardgrass plant response rating (barnyardgrass [1]; [5]): 20
Plant response rating, Barnyardgrass (barnyardgrass [1]; [6]): 60
Barnyardgrass plant response rating (barnyardgrass [1]; [7]): 60
Plant response rating (0 to 100 scale), Surinam Grass (Surinam grass; [4]): 10
Surinam Grass plant response rating (Surinam grass; [5]): 20
Plant response rating, Surinam Grass (Surinam grass; [6]): 20
Surinam Grass plant response rating (Surinam grass; [7]): 40
Plant response rating (0 to 100 scale), Cocklebur (cocklebur; [4]): 0
Cocklebur plant response rating (cocklebur; [5]): 30
Plant response rating, Cocklebur (cocklebur; [6]): 0
Cocklebur plant response rating (cocklebur; [7]): 70
Plant response rating (0 to 100 scale), Corn (corn; [4]): 0
Corn plant response rating (corn; [5]): 0
Plant response rating, Corn (corn; [6]): 0
Corn plant response rating (corn; [7]): 10
Plant response rating (0 to 100 scale), Crabgrass, Large (large crabgrass; [4]): 40
Crabgrass, Large plant response rating (large crabgrass; [5]): 50
Plant response rating, Crabgrass, Large (large crabgrass; [6]): 100
Crabgrass, Large plant response rating (large crabgrass; [7]): 80
Plant response rating (0 to 100 scale), Foxtail, Giant (giant foxtail; [4]): 20
Foxtail, Giant plant response rating (giant foxtail; [5]): 30
Plant response rating, Foxtail, Giant (giant foxtail; [6]): 60
Foxtail, Giant plant response rating (giant foxtail; [7]): 50
Plant response rating (0 to 100 scale), Lambsquarters (lambsquarters; [4]): 90
Lambsquarters plant response rating (lambsquarters; [5]): 80
Plant response rating, Lambsquarters (lambsquarters; [6]): 100
Lambsquarters plant response rating (lambsquarters; [7]): 100
Plant response rating (0 to 100 scale), Morningglory (morningglory; [4]): 10
Morningglory plant response rating (morningglory; [5]): 40
Plant response rating, Morningglory (morningglory; [6]): 30
Morningglory plant response rating (morningglory; [7]): 70
Plant response rating (0 to 100 scale), Pigweed (pigweed; [4]): 100
Pigweed plant response rating (pigweed; [5]): 100
Plant response rating, Pigweed (pigweed; [6]): 100
Pigweed plant response rating (pigweed; [7]): 100
Blackgrass plant response rating (blackgrass; [5]): 40
Blackgrass plant response rating (blackgrass; [7]): 80
Wheat plant response rating (wheat; [5]): 20
Wheat plant response rating (wheat; [7]): 30
Oat, Wild plant response rating (wild oat; [5]): 40
Oat, Wild plant response rating (wild oat; [7]): 60
Rice plant response rating (rice): 50
Sedge, Umbrella plant response rating [2]: 90
Ducksalad plant response rating (ducksalad): 90
Barnyardgrass plant response rating (barnyardgrass [3]): 60

C=CCNC(=O)c1cccc(NC(=O)c2nn(C(C)(C)C)nc2CC)c1 [Compound 414]
Plant response rating (0 to 100 scale), Barnyardgrass (barnyardgrass [1]; [4]): 90
Barnyardgrass plant response rating (barnyardgrass [1]; Postemergence, 125 g ai/ha, scale 0 (no effect) to 100 (complete control)): 30
Barnyardgrass plant response rating (barnyardgrass [1]; [8]): 30
Plant response rating (0 to 100 scale), Surinam Grass (Surinam grass; [4]): 90
Surinam Grass plant response rating (Surinam grass; [8]): 60
Surinam Grass plant response rating (Surinam grass; [9]): 20
Plant response rating (0 to 100 scale), Cocklebur (cocklebur; [4]): 20
Cocklebur plant response rating (cocklebur; [8]): 70
Cocklebur plant response rating (cocklebur; [9]): 60
Plant response rating (0 to 100 scale), Corn (corn; [4]): 70
Corn plant response rating (corn; [8]): 40
Corn plant response rating (corn; [9]): 30
Plant response rating (0 to 100 scale), Crabgrass, Large (large crabgrass; [4]): 100
Crabgrass, Large plant response rating (large crabgrass; [8]): 70
Crabgrass, Large plant response rating (large crabgrass; [9]): 30
Plant response rating (0 to 100 scale), Foxtail, Giant (giant foxtail; [4]): 90
Foxtail, Giant plant response rating (giant foxtail; [8]): 40
Foxtail, Giant plant response rating (giant foxtail; [9]): 30
Plant response rating (0 to 100 scale), Lambsquarters (lambsquarters; [4]): 100
Lambsquarters plant response rating (lambsquarters; [8]): 100
Lambsquarters plant response rating (lambsquarters; [9]): 80
Plant response rating (0 to 100 scale), Morningglory (morningglory; [4]): 10
Morningglory plant response rating (morningglory; [8]): 70
Morningglory plant response rating (morningglory; [9]): 20
Plant response rating (0 to 100 scale), Pigweed (pigweed; [4]): 100
Pigweed plant response rating (pigweed; [8]): 100
Pigweed plant response rating (pigweed; [9]): 90
Blackgrass plant response rating (blackgrass; [8]): 50
Blackgrass plant response rating (blackgrass; [9]): 40
Wheat plant response rating (wheat; 500 g ai/ha, scale 0 to 100, 0 no effect, 100 complete control, preemergence): 100
Wheat plant response rating (wheat; [8]): 20
Wheat plant response rating (wheat; [9]): 10
Oat, Wild plant response rating (wild oat; [8]): 40
Oat, Wild plant response rating (wild oat; [9]): 30
Rice plant response rating (rice): 80
Sedge, Umbrella plant response rating [2]: 90
Ducksalad plant response rating (ducksalad): 90
Barnyardgrass plant response rating (barnyardgrass [3]): 80
